Counter-ions that a name gives are not always drawn.
Key:
A549 cells [1] = assay: cell competition experiment using 14C-ornithine as tracer; format: cell-based, human; conditions: 0.1 μCi 14C-ornithine tracer, compound 1 mM, incubation 10 min
Procedure: (3R)-3-fluoro-L-ornithine-dihydrochloride (31) was used in a cell competition experiment using ^14C-ornithine as tracer.
FIG. 3: The specificity of (3R)-3-fluoro-L-ornithine-dihydrochloride (31) to compete for ^14C-Ornithine uptake was determined in a cell competition experiment in A549 cells. (0.1 μCi ^14C-Ornithine was used as tracer, (3R)-3-fluoro-L-ornithine-dihydrochloride was used at a concentration of 1 mM, incubation period 10 min).

[2] = Welch et al. 1986; cited from earlier work
A549 tumor cells [3] = assay: cell competition experiment, uptake of tracer (29) against excess L-ornithine; format: cell-based, human; conditions: 0.25 MBq tracer, 1 mM L-ornithine, incubation 30 min
Procedure: (§1) To determine the specificity of (4S)-[^18F]-fluoro-L-ornithine (29), the fluorinated compound was used as tracer in a cell competition experiment in A549 as well as PC3 tumor cells against an excess of L-Ornithine (1 mM).
(§2) FIG. 4: The specificity of (4S)-[^18F]-fluoro-L-ornithine (29) for uptake into tumor cells was determined in cell competition experiments using A549 as well as PC3 tumor cells. (0.25 MBq of (4S)-[^18F]-fluoro-L-ornithine was used as tracer, an excess of 1 mM L-ornithine was used for saturation of uptake systems, incubation time 30 min).

PC3 tumor cells = assay: as above; format: cell-based; conditions: 0.25 MBq tracer, 1 mM L-ornithine, incubation 30 min
Procedure: as §1, §2

A549 cells [4] = assay: time dependence of uptake of tracer (29), cell-bound fraction; format: cell-based, human; conditions: 0.25 MBq, 60 min incubation
Procedure: (§3) In a second experiment, A549 and PC3 cells were incubated with (4S)-[^18F]-fluoro-L-ornithine for up to 60 min and the cell-bound fraction was determined. Approximately 5% of applied dose was taken up by the cells during the 60 min incubation period (FIG. 5).
(§4) FIG. 5: The time dependence of uptake of (4S)-[^18F]-fluoro-L-ornithine(29) was determined. (A549 and PC3 cells were incubated with 0.25 MBq (4S)-[^18F]-fluoro-L-ornithine for up to 60 min and the cell-bound fraction was determined after 10, 20, 30 and 60 min)

PC3 cells = assay: as above; format: cell-based; conditions: 0.25 MBq, 60 min incubation
Procedure: as §3, §4

A549 tumor cells [5] = assay: retention of activity in tumor cells under efflux conditions; format: cell-based, human; conditions: A549 cells loaded 30 min with 0.25 MBq, then 30 min in new buffer (efflux conditions)
Procedure: In a third experiment, the retention of activity in tumor cells was examined. A549 cells were incubated with (4S)-[^18F]-fluoro-L-ornithine for 30 min. After this time, cells were incubated with new buffer (without radiotracer) for up to 30 min. The release of radioactivity into the supernatant as well as the retention inside the cells was examined. It was discovered, that approximately 66% of activity were retained in the tumor cells after 30 min under efflux conditions (FIG. 6).
FIG. 6: Examination of retention of (4S)-[^18F]-fluoro-L-ornithine (29) in A549 tumor cells. A549 cells were loaded with 0.25 MBq (4S)-[^18F]-fluoro-L-ornithine for 30 min in PBS. After washing, the cells were incubated with new buffer (without activity) for additional 10, 20, 30 min. The release of radioactivity into the supernatant as well as the retention inside the cells was determined.

[6] = tested on: NCI-H460 (human NSCLC) tumor bearing rats; assay: PET-Imaging in tumor bearing rats; format: in vivo, rat
Procedure: (§5) Animal experiments. (4S)-[^18F]-fluoro-L-ornithine was examined in NCI-H460 (human NSCLC) tumor bearing rats using PET-Imaging. PET images were obtained from 45 min after administration of the radiotracer (7.16 MBq) for 30 min. […] After the PET-imaging study (98 min p.i.) the rat was sacrificed, several organs were removed and the amount of radioactivity in tissues was measured.
FIG. 7: PET-Imaging of (4S)-[^18F]-fluoro-L-ornithine (29) in H460 tumor bearing rats. 7.16 MBq of radioactive tracer was injected i.v. into rats. PET images were obtained using the Inveon PET/CT scanner from 45 min p.i. for 30 min.

[7] = tested on: NCI-H460 (human NSCLC) tumor bearing rats; assay: radioactivity in removed organs after the PET-imaging study (biodistribution); format: in vivo, rat; conditions: 98 min p.i.
Procedure: as §5

[8] = tested on: A549 (human NSCLC) tumor cells; assay: cell competition experiment, uptake of tracer (38) against excess L-ornithine; format: cell-based; conditions: 30 min incubation, 0.25 MBq tracer in PBS, L-ornithine 1 mM
Procedure: (§6) To determine the specificity of (5R)-[^18F]-fluoromethyl-L-ornithine (38), the fluorinated compound was used as tracer in a cell competition experiment in A549 (human NSCLC) as well as H460 (human NSCLC) tumor cells using an excess of L-ornithine (1 mM) for competition.
(§7) FIG. 1: Examination of biological activity of (5R)-[^18F]-fluoromethyl-L-ornithine (38) from in a cell-competition-experiment. (NCI-H460 and A549 cells, 30 min incubation with 0.25 MBq (5R)-[^18F]-fluoromethyl-L-ornithine in PBS-Puffer, concentration of L-ornithine 1 mM).

[9] = tested on: H460 (human NSCLC) tumor cells; assay: as above; format: cell-based; conditions: 30 min incubation, 0.25 MBq tracer in PBS, L-ornithine 1 mM
Procedure: as §6, §7

[10] = tested on: PC3 (prostate) tumor cell line; assay: time-dependence of binding of tracer (38) to tumor cell lines; format: cell-based; conditions: 30 min incubation with 0.25 MBq
Procedure: In a second experiment, the time-dependence of binding of (5R)-[^18F]-fluoromethyl-L-ornithine to several tumor cell lines was determined using A549, H460 as well as PC3 (prostate) and DU145 (prostate) tumor cell lines. After 30 min incubation with 0.25 MBq up to 5% (PC3 cells) of applied dose were bound to the cells (FIG. 2).
FIG. 2: Binding of (5R)-[^18F]-fluoromethyl-L-ornithine (38) to several tumor cell lines. (A549, H460 (both human NSCLC) as well as PC3 and DU145 (both prostate) tumor cell lines were used and incubated with 0.25 MBq (5R)-[^18F]-fluoromethyl-L-ornithine for up to 30 min. The cell-bound fraction of activity was determined after 10 min, 20 min and 30 min.

[11] = PET from 45 min p.i. for 30 min, 7.16 MBq i.v., H460 tumor

NCC[C@@H](F)[C@H](N)C(=O)O [Example 31, (3R)-3-fluoro-L-ornithine-dihydrochloride]
block of uptake of 14C-ornithine (A549 cells [1]): can block uptake of ^14C-ornithine in A549 cells to a large extent

[^18F]fluoro-putricine
in-vivo release of free [18F]fluoride [2]: relatively high in-vivo release of free [^18F]fluoride

NC[C@@H]([18F])C[C@H](N)C(=O)O [Example 29, (4S)-[^18F]-fluoro-L-ornithine]
uptake of tracer blockable by excess of ornithine (A549 tumor cells [3]): blockable by excess of ornithine
uptake of tracer blockable by excess of ornithine (PC3 tumor cells): blockable by excess of ornithine
applied dose taken up by the cells (A549 cells [4]): Approximately 5 % of applied dose
applied dose taken up by the cells (PC3 cells): Approximately 5 % of applied dose
activity retained in the tumor cells (A549 tumor cells [5]): approximately 66%
injected dose per gram tumor by ROI analyses [6, 11]: up to 2.2 % injected dose per gram
tumor visualization in PET images [6, 11]: very well visualized
defluorination in vivo, uptake of released [F18]-fluoride in the bones ([6]; later time points of PET study): Some partial defluorination
radioactivity in blood ([7]; blood): 0.38 % ID/g
radioactivity in bone ([7]; bone): 2.08 % ID/g
radioactivity in brain ([7]; brain): 0.24 % ID/g
radioactivity in heart ([7]; heart): 0.44 % ID/g
radioactivity in kidney ([7]; kidney): 1.18 % ID/g
radioactivity in liver ([7]; liver): 0.39 % ID/g
radioactivity in lung ([7]; lung): 0.44 % ID/g
radioactivity in pancreas ([7]; pancreas): 2.47 % ID/g
radioactivity in tumor ([7]; tumor): 1.43 % ID/g

N[C@@H](C[18F])CC[C@H](N)C(=O)O [Example 38, (5R)-[^18F]-fluoromethyl-L-ornithine]
uptake of tracer blockable by excess of L-ornithine [8]: blockable by excess of L-ornithine
uptake of tracer blockable by excess of L-ornithine [9]: blockable by excess of L-ornithine
applied dose bound to the cells [10]: up to 5 % of applied dose

Source: patent publication US20110250137A1, “RADIOISOTOPE-LABELED LYSINE AND ORNITHINE DERIVATIVES, THEIR USE AND PROCESSES FOR THEIR PREPARATION” (priority 2008, published 2011)
